In patent US8460669B2, “Compositions and methods for identifying response targets and treating flavivirus infection responses” (Academia Sinica, priority 2005, dated 2013):

Assays:
MMR.Fc = biological target: T1, MMR.Fc (Homo sapiens, UniProt P22897); assay: Sugar competition EIA, MMR.Fc binding to GLPS-F3; conditions: sugar 1 mg/ml
T1 construct: The extracellular domains of lectin receptors, TREMs and TLTs were cloned by the reverse-transcriptase polymerase chain reaction (RT-PCR); made in house; host or cells: 293-F (FreeStyle 293) cells
T1 sequence (P22897 19-1389 limits assumed): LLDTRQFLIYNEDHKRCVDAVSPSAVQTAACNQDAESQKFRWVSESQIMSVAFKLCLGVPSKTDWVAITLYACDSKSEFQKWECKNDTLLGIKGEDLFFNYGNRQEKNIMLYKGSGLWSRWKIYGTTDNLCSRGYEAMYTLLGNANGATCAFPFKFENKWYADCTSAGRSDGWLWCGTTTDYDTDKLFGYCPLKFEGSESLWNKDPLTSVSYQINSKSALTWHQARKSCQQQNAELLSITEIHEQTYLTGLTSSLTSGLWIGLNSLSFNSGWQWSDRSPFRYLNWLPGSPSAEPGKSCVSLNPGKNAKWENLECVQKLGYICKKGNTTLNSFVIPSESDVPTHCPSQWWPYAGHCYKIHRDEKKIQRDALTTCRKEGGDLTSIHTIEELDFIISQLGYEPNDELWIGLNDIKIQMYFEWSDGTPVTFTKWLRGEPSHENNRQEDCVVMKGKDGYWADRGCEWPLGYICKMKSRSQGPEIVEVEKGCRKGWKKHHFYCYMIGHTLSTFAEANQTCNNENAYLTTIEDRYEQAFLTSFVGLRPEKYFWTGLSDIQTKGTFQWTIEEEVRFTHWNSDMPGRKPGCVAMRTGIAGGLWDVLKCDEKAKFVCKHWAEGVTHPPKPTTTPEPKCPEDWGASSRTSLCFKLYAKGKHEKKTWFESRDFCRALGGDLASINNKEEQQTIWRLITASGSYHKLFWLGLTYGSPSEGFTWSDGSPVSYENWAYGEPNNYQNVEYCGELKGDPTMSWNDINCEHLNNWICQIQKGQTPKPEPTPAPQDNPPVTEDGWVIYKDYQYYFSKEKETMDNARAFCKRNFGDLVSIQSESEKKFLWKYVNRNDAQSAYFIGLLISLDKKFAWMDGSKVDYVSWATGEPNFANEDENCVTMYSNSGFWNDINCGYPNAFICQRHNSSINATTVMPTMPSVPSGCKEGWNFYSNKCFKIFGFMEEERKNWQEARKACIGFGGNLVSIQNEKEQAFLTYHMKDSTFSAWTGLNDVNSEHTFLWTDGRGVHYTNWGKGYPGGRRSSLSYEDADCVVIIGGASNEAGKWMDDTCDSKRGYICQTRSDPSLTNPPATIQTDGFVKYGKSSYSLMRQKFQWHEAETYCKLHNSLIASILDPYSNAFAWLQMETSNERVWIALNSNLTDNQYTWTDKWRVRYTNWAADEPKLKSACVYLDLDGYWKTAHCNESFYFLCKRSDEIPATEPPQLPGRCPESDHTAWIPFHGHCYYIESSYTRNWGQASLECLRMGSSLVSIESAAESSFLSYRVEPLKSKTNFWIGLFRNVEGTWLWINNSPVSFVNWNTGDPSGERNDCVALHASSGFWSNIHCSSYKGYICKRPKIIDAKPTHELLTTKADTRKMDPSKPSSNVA
Method: (§1) The interaction between GLPS-F3 and receptor.Fc was then tested. Unbiotinylated GLPS-F3 was immobilized at 100 ng/well as described above, and 100 μL receptor.Fc fusion protein (1 μg/ml in 2 mM MgCl2/2 mM CaCl2/1% BSA/TBST) was added into each well and incubated for 1 hour at room temperature. After washing with TBST, wells were incubated with peroxidase-conjugated goat anti-human IgG Ab (1:5000 dilution, Jackson ImmunoResearch Laboratories) in blocking buffer at room temperature for 30 min. Wells were incubated with 100 μL TMB substrate for 15 min after TBST washing and read at 450 nm in a Fusion plate reader (Perkin Elmer). The results were normalized with respect to Fc.Dectin-1 binding (Dectin-1 is a known lectin receptor that binds to β-1,3-glucan which is the backbone found in GLPS-F3). FIG. 6B depicts in graphical form the affinity of each receptor for GLPS-F3 relative to Dectin-1. […] There was also weaker but positive GLPS-F3 binding ability (25-50% binding intensity compared to Fc.dectin-1) found in Fc.NKG2D, Fc.MINCLE, Fc.mKCR, DCAL1.Fc, DEC205.Fc, Endo180.Fc and NKp30(NCR3).Fc.
(§2) To understand the interaction of GLPS-F3 with specific innate immunity receptors, the polysaccharides mannan and β-glucan and the monosaccharides D-mannose (Man), D-glucose (Glc), N-acetyl-glucosamine (GlcNAc), D-galactose (Gal), N-acetyl-galactosamine (GalNAc), L-fucose (Fuc) and sialic acid, were used in a competition assay. […] The assays were carried out as in Example 9, with the addition of 1 mg/ml of each polysaccharide or monosaccharide.

Dectin-1.Fc = biological target: T2, Dectin-1.Fc (Homo sapiens, UniProt Q9BXN2); assay: Immunosorbent dot binding assay with Dectin-1.Fc; conditions: competitor 0.1 μg-1000 μg, or EDTA 10 mM in TBST
T2 construct: The extracellular domains of lectin receptors, TREMs and TLTs were cloned by the reverse-transcriptase polymerase chain reaction (RT-PCR); made in house; host or cells: 293-F (FreeStyle 293) cells
T2 sequence (Q9BXN2 66-247 limits assumed): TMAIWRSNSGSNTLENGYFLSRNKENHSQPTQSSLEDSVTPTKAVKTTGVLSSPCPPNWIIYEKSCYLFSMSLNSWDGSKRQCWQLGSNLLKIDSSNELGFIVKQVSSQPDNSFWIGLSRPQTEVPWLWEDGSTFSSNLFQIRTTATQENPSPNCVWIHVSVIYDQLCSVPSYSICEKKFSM

TLR4.Fc = biological target: T3, TLR4.Fc (Homo sapiens, UniProt O00206); assay: Sugar competition EIA, TLR4.Fc binding to GLPS-F3; conditions: sugar 1 mg/ml
T3 construct: The extracellular domains of several innate immunity receptors from immune cells were cloned by reverse-transcription polymerase chain reaction (RT-PCR); made in house; host or cells: 293-F (FreeStyle 293) cells
T3 sequence (O00206 24-631 limits assumed): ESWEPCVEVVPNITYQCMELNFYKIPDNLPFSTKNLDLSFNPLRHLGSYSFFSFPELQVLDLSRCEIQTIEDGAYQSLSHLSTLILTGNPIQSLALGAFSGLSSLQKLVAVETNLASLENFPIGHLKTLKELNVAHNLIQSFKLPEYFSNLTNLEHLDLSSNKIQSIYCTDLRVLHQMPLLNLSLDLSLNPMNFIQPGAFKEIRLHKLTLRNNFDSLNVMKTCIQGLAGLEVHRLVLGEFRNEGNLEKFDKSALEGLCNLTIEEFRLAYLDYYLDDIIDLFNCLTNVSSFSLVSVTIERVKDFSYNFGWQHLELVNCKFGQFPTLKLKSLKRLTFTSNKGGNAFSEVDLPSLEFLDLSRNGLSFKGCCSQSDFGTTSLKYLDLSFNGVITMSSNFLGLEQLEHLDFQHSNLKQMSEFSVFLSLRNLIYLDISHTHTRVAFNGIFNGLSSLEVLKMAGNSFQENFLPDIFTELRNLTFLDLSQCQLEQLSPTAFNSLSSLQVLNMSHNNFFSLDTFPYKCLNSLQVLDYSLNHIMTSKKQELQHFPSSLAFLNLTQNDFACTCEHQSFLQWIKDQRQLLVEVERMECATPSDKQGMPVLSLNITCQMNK
Method: as §1, §2

Dectin-1 = biological target: T4, Dectin-1 (Homo sapiens, UniProt Q9BXN2); assay: Sugar competition EIA, Fc.Dectin-1 binding to GLPS-F3; conditions: sugar 1 mg/ml
T4 construct: The extracellular domains of lectin receptors, TREMs and TLTs were cloned by the reverse-transcriptase polymerase chain reaction (RT-PCR); made in house; host or cells: 293-F (FreeStyle 293) cells
T4 sequence (Q9BXN2 66-247 limits assumed): T2 sequence (Q9BXN2 66-247 limits assumed)
Method: as §1, §2

CLEC-6 = biological target: T5, CLEC-6 (Homo sapiens, UniProt Q8WXI8); assay: Sugar competition EIA, Fc.CLEC-6 binding to GLPS-F3; conditions: sugar 1 mg/ml
T5 construct: The extracellular domains of lectin receptors, TREMs and TLTs were cloned by the reverse-transcriptase polymerase chain reaction (RT-PCR); made in house; host or cells: 293-F (FreeStyle 293) cells
T5 sequence (Q8WXI8 39-215 limits assumed): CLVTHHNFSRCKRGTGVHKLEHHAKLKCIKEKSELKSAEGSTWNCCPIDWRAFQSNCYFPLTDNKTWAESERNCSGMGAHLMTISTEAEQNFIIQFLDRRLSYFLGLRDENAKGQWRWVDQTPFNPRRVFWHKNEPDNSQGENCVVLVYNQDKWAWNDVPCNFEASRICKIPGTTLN
Method: as §1, §2

CLEC-2 = biological target: T6, CLEC-2 (Homo sapiens, UniProt Q9P126); assay: Sugar competition EIA, Fc.CLEC-2 binding to GLPS-F3; conditions: sugar 1 mg/ml
T6 construct: The extracellular domains of lectin receptors, TREMs and TLTs were cloned by the reverse-transcriptase polymerase chain reaction (RT-PCR); made in house; host or cells: 293-F (FreeStyle 293) cells
T6 sequence (Q9P126 55-229 limits assumed): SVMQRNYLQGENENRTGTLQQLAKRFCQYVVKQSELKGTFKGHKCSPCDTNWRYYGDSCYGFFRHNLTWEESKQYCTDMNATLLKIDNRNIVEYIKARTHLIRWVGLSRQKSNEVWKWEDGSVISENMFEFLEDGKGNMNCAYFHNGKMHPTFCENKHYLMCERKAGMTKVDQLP
Method: as §1, §2

DC-SIGN = biological target: T7, DC-SIGN (Homo sapiens, UniProt Q9NNX6); assay: Sugar competition EIA, Fc.DC-SIGN binding to GLPS-F3; conditions: sugar 1 mg/ml
T7 construct: The extracellular domains of lectin receptors, TREMs and TLTs were cloned by the reverse-transcriptase polymerase chain reaction (RT-PCR); made in house; host or cells: 293-F (FreeStyle 293) cells
T7 sequence (Q9NNX6 59-404 limits assumed): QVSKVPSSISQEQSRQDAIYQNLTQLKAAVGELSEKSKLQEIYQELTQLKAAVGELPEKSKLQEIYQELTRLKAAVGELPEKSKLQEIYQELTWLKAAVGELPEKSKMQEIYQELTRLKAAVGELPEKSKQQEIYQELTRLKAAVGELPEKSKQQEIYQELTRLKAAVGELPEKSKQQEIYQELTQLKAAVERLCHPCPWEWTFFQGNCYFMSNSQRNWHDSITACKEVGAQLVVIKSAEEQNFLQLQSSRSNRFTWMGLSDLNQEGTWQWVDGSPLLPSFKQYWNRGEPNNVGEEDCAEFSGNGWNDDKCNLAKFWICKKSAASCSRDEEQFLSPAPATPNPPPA
Method: as §1, §2

Langerin = biological target: T8, Langerin (Homo sapiens, UniProt Q9UJ71); assay: Sugar competition EIA, Fc.Langerin binding to GLPS-F3; conditions: sugar 1 mg/ml
T8 construct: The extracellular domains of lectin receptors, TREMs and TLTs were cloned by the reverse-transcriptase polymerase chain reaction (RT-PCR); made in house; host or cells: 293-F (FreeStyle 293) cells
T8 sequence (Q9UJ71 65-328 limits assumed): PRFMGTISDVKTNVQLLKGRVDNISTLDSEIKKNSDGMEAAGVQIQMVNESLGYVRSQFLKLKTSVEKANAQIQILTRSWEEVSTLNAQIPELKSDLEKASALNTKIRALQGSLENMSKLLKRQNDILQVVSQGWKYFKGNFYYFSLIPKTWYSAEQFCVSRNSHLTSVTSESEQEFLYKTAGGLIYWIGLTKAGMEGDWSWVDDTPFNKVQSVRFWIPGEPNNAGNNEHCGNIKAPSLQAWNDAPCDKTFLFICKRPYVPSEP
Method: as §1, §2

SMILES | inhibition of interaction between GLPS-F3 and MMR.Fc (MMR.Fc) [%] | inhibition of the interaction between Dectin-1.Fc and F3 (Dectin-1.Fc) | Percentage of binding of TLR4.Fc to GLPS-F3 relative to binding in absence of sugar competitor (TLR4.Fc) [%] | Percentage of binding of Dectin-1 Fc fusion to GLPS-F3 relative to binding in absence of sugar competitor (Dectin-1) [%] | Percentage of binding of CLEC-6 Fc fusion to GLPS-F3 relative to binding in absence of sugar competitor (CLEC-6) [%] | Percentage of binding of MMR.Fc to GLPS-F3 relative to binding in absence of sugar competitor (MMR.Fc) [%] | Percentage of binding of CLEC-2 Fc fusion to GLPS-F3 relative to binding in absence of sugar competitor (CLEC-2) [%] | Percentage of binding of DC-SIGN Fc fusion to GLPS-F3 relative to binding in absence of sugar competitor (DC-SIGN) [%] | Percentage of binding of Langerin Fc fusion to GLPS-F3 relative to binding in absence of sugar competitor (Langerin) [%] | inhibition of binding of Fc.DC-SIGN to GLPS-F3 (DC-SIGN) [%] | inhibition of interaction between Fc.Langerin and GLPS-F3 (Langerin) [%] | inhibition of interaction between GLPS-F3 and Fc.Dectin-1 (Dectin-1) [%] | inhibition of interaction of Fc.CLEC-2 to GLPS-F3 (CLEC-2) [%]
O=C[C@H](O)[C@@H](O)[C@@H](O)[C@H](O)CO [Gal, D-galactose] | 36 | not | 100 ± 2.7 | – | – | – | – | – | – | – | – | – | –
CC(=O)N[C@H]1C(O)O[C@H](CO)[C@H](O)[C@@H]1O (stereo partly drawn) [GalNAc, N-acetyl-galactosamine] | – | – | 95 ± 4.1 | 88 ± 2.6 | 96 ± 2.4 | 80 ± 4.2 | 110 ± 11.4 | 110 ± 3.1 | 97 ± 0.7 | – | – | – | –
O=C[C@H](O)[C@@H](O)[C@H](O)[C@H](O)CO [Glc, D-glucose] | 45 | not | 101 ± 4.7 | – | – | – | – | – | – | 45 | – | – | –
CC(=O)N[C@H]1C(O)O[C@H](CO)[C@@H](O)[C@@H]1O (stereo partly drawn) [GlcNAc, N-acetyl-glucosamine] | 78 | – | 99 ± 4.7 | 91 ± 2.6 | 99 ± 8.5 | 22 ± 3.4 | 103 ± 10.2 | 73 ± 8.6 | 16 ± 2.7 | 27 | 84 | – | –
CC(=O)N[C@H]1[C@H]([C@H](O)[C@H](O)CO)OC(O)(C(=O)O)C[C@@H]1O (stereo partly drawn) [sialic acid] | 93 | – | 77 ± 3.1 | 17 ± 0.3 | 94 ± 13.0 | 7 ± 2.4 | 45 ± 6.2 | 10 ± 1.0 | 5 ± 0.3 | 90 | 95 | 83 | 55
